From the NIST ThermoML archive (doi:10.1021/acs.jced.8b00036)
Values joined by “and” are separate entries in the source; they are usually repeats but may differ in a detail not shown here. Equal values may be shown once.

Conditions: Capillary tube (Ostwald / Ubbelohde) method

FC(F)(F)/C=C\C(F)(F)F [(Z)-1,1,1,4,4,4-hexafluorobut-2-ene]
Conditions	viscosity
313.83 K, 513 kPa, Liquid	0.3037 mPa·s
313.84 K, 513 kPa, Liquid	0.3034 mPa·s
313.84 K, 514 kPa, Liquid	0.3036 mPa·s
313.92 K, 2053 kPa, Liquid	0.3115 mPa·s
313.94 K, 2037 kPa, Liquid	0.3097 mPa·s
313.94 K, 2996 kPa, Liquid	0.3143 mPa·s
313.94 K, 3001 kPa, Liquid	0.3146 mPa·s
313.94 K, 4041 kPa, Liquid	0.3198 mPa·s
313.95 K, 2025 kPa, Liquid	0.3098 mPa·s
313.95 K, 3000 kPa, Liquid	0.3143 mPa·s
313.95 K, 4049 kPa, Liquid	0.3197 mPa·s
313.96 K, 4002 kPa, Liquid	0.3194 mPa·s
314.26 K, 1040 kPa, Liquid	0.3074 mPa·s
314.27 K, 1041 kPa, Liquid	0.3068 mPa·s
314.31 K, 1050 kPa, Liquid	0.3081 mPa·s
331.5 K, 503 kPa, Liquid	0.2577 mPa·s
331.5 K, 505 kPa, Liquid	0.2579 mPa·s
331.51 K, 506 kPa, Liquid	0.2578 mPa·s
331.57 K, 2020 kPa, Liquid	0.2593 mPa·s and 0.2599 mPa·s
331.57 K, 2033 kPa, Liquid	0.26 mPa·s
331.81 K, 1002 kPa, Liquid	0.2579 mPa·s
331.82 K, 1017 kPa, Liquid	0.259 mPa·s
331.83 K, 1015 kPa, Liquid	0.2588 mPa·s
331.84 K, 4062 kPa, Liquid	0.2658 mPa·s
331.85 K, 4047 kPa, Liquid	0.2652 mPa·s
331.87 K, 4059 kPa, Liquid	0.2651 mPa·s
331.94 K, 3026 kPa, Liquid	0.2608 mPa·s
331.94 K, 3039 kPa, Liquid	0.2617 mPa·s
331.94 K, 3040 kPa, Liquid	0.2617 mPa·s
353.79 K, 4019 kPa, Liquid	0.2122 mPa·s
353.8 K, 4020 kPa, Liquid	0.212 mPa·s and 0.2117 mPa·s
353.99 K, 2066 kPa, Liquid	0.2011 mPa·s
353.99 K, 2067 kPa, Liquid	0.2011 mPa·s
354 K, 2064 kPa, Liquid	0.201 mPa·s
354.08 K, 3022 kPa, Liquid	0.2047 mPa·s
354.1 K, 3021 kPa, Liquid	0.2032 mPa·s
354.23 K, 1032 kPa, Liquid	0.1944 mPa·s
354.23 K, 1033 kPa, Liquid	0.1942 mPa·s
354.24 K, 1031 kPa, Liquid	0.193 mPa·s
374.43 K, 4050 kPa, Liquid	0.1702 mPa·s
374.43 K, 4056 kPa, Liquid	0.1702 mPa·s
374.44 K, 2025 kPa, Liquid	0.1613 mPa·s
374.44 K, 4050 kPa, Liquid	0.1705 mPa·s
374.45 K, 2025 kPa, Liquid	0.1618 mPa·s
374.46 K, 2025 kPa, Liquid	0.1611 mPa·s
374.74 K, 3026 kPa, Liquid	0.1632 mPa·s and 0.1645 mPa·s
374.75 K, 3026 kPa, Liquid	0.1635 mPa·s
374.87 K, 492 kPa, Gas	0.013 mPa·s
374.88 K, 492 kPa, Gas	0.01305 mPa·s
393.63 K, 3044 kPa, Liquid	0.1336 mPa·s
393.64 K, 3044 kPa, Liquid	0.1339 mPa·s
393.65 K, 3044 kPa, Liquid	0.1332 mPa·s
393.65 K, 4017 kPa, Liquid	0.1377 mPa·s and 0.138 mPa·s and 0.1378 mPa·s
394 K, 2016 kPa, Liquid	0.1278 mPa·s
394.01 K, 2016 kPa, Liquid	0.128 mPa·s
394.03 K, 2016 kPa, Liquid	0.1282 mPa·s
394.16 K, 499 kPa, Gas	0.01348 mPa·s
394.19 K, 499 kPa, Gas	0.01343 mPa·s
413.55 K, 4046 kPa, Liquid	0.1104 mPa·s
413.56 K, 4047 kPa, Liquid	0.11 mPa·s
413.63 K, 3011 kPa, Liquid	0.103 mPa·s
413.63 K, 3015 kPa, Liquid	0.103 mPa·s
413.75 K, 3010 kPa, Liquid	0.1029 mPa·s
413.99 K, 503 kPa, Gas	0.01378 mPa·s
414.21 K, 503 kPa, Gas	0.01361 mPa·s
414.24 K, 1014 kPa, Gas	0.01449 mPa·s
414.29 K, 1033 kPa, Gas	0.01434 mPa·s and 0.01444 mPa·s
434.12 K, 3016 kPa, Liquid	0.07044 mPa·s and 0.07094 mPa·s
434.13 K, 3016 kPa, Liquid	0.07045 mPa·s
434.23 K, 502 kPa, Gas	0.01388 mPa·s
434.23 K, 503 kPa, Gas	0.01384 mPa·s
434.28 K, 1011 kPa, Gas	0.01451 mPa·s
434.28 K, 1012 kPa, Gas	0.01443 mPa·s
434.37 K, 4014 kPa, Liquid	0.08047 mPa·s and 0.08072 mPa·s and 0.08096 mPa·s
454.24 K, 506 kPa, Gas	0.01429 mPa·s
454.27 K, 506 kPa, Gas	0.0143 mPa·s
454.34 K, 1003 kPa, Gas	0.01547 mPa·s and 0.01568 mPa·s
454.57 K, 2031 kPa, Gas	0.01628 mPa·s
454.58 K, 2030 kPa, Gas	0.01633 mPa·s
473.27 K, 509 kPa, Gas	0.02101 mPa·s
474.67 K, 500 kPa, Gas	0.0152 mPa·s
474.69 K, 500 kPa, Gas	0.01519 mPa·s
474.82 K, 999 kPa, Gas	0.01587 mPa·s
474.83 K, 2004 kPa, Gas	0.0169 mPa·s
474.84 K, 2004 kPa, Gas	0.01661 mPa·s
474.85 K, 1000 kPa, Gas	0.01579 mPa·s

FCC(F)(F)F [1,1,1,2-tetrafluoroethane]
Liquid
Conditions	viscosity [mPa·s]
312.75 K, 4064 kPa	0.1723
312.76 K, 4069 kPa	0.1731
312.77 K, 3061 kPa	0.1681
312.78 K, 3042 kPa	0.1684
312.78 K, 3061 kPa	0.1682
312.82 K, 4048 kPa	0.173
312.83 K, 1706 kPa	0.1656
312.96 K, 1701 kPa	0.165
313.01 K, 1763 kPa	0.1654
313.5 K, 1796 kPa	0.1656
332.79 K, 3072 kPa	0.1279
332.79 K, 3083 kPa	0.1284
332.8 K, 3079 kPa	0.1282
332.8 K, 4005 kPa	0.1325
332.81 K, 4008 kPa	0.1324
332.81 K, 4011 kPa	0.1325
354.96 K, 4007 kPa	0.09565
355.51 K, 4078 kPa	0.09407
355.94 K, 4155 kPa	0.09335
